Patent US6660837B1, “Modified protein derived from protein kinase N” (Kirin Beer Kabushiki Kaisha, priority 1995, dated 2003)

Tests used:
[1] = system: head-rod domain of NF subunit (NFL, NFM, NFH); test: Yeast two-hybrid, PKN N-terminal region with NF head-rod domains; assay type: binding; details: lacZ expression
Experimental: (§1) Specificity of the interaction between PKN and various NFs was investigated by measuring the ability of the two-hybrid constructs, pBTM116(Vojtek, A. B. et al., Cell, 74, 205-214 (1993)) (instead of pGBT9)-PKN and pVP16 (Vojtek, A. B. et al., Cell, 74, 205-214 (1993)) (instead of pGAD10)-NF or in reverse, to support lacZ expression in L40 cells.
Yeast expression vectors were prepared as follows. Yeast expression vector pVP/NFL#21 for the VP16 transcription activation domain-head-rod domain of human NFL was made by subcloning a EcoRI insert (amino acid sequence 1-349) of a library plasmid #21 originally isolated from two-hybrid screening into pVP16 vector (Vojtek, A. B. et al., Cell, 74, 205-214 (1993)). Yeast expression vectors for the VP16 transcription activation domain—tail domain of NFL and NFH or the VP16 transcription activation domain—head-rod domain or tail domain of NFM were constructed by subcloning BamHI/NotI insert of pGST/NFLt, pGST/NFHt, pGST/NFMhr, and pGST/NFMt (described in Example 8) into pVP16 in frame, respectively (designated respectively as pVP/NFLt, pVP/NFHt, pVP/NFMhr, and pVP/NFMt). […]

[2] = system: head-rod domain of vimentin; test: Yeast two-hybrid, PKN N-terminal region with vimentin; assay type: binding; details: data not shown
Excerpt: as §1
To determine whether N-terminal region of PKN binds to NFM or NFH as well as NFL, corresponding region to the head-rod domain of NFM or NFH was ligated to pVP16 and lacZ expression was measured in two-hybrid system. The N-terminal region of PKN bound to each head-rod domain of NF subunit (FIG. 11(B)), and also interacted with the corresponding head-rod domain of vimentin, a ubiquitously expressed member of intermediate filament, in two-hybrid system (data not shown).

binding to head-rod domain of each NF subunit in two-hybrid system [1]: bound
Substance: N-terminal region of PKN: N-terminal regulatory region of human PKN: 1-540 (PKNN1) in two-hybrid and GST fusions, 1-474 when in vitro translated
interaction with head-rod domain of vimentin in two-hybrid system [2]: interacted
